Measurements as given in article PMC10893631, “Receptor-based pharmacophore modeling, molecular docking, synthesis and biological evaluation of novel VEGFR-2, FGFR-1, and BRAF multi-kinase inhibitors” (BMC Chemistry, 2024).

How the values were obtained:
Assay in all cases: NCI SRB growth inhibition (single dose 10 µM / five-dose)
Type in all cases: cell-based, human
SF-539 = settings: for GI50: SF-539, CNS cancer, five-dose
Outline: (§1)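 Three dose–response parameters were calculated per compound, among them TGI, defined at Ti = Tz. Percentage growth came from SRB absorbance normalised to time-zero and control wells, with negative values indicating cell kill below Tz.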

MOLT-4 = settings: for GI50: MOLT-4, Leukemia, five-dose
Outline: as §1

NCI-H226 = settings: for GI50: NCI-H226, Non-small cell lung cancer, five-dose
Outline: as §1

M14 = settings: for GI50: M14, Melanoma, five-dose
Outline: as §1

RPMI-8226 = settings: for GI50: RPMI-8226, Leukemia, five-dose
Outline: as §1

SR = settings: for GI50: SR, Leukemia, five-dose
Outline: as §1

TK-10 = settings: for GI50: TK-10, Renal cancer, five-dose
Outline: as §1

HOP-92 = system: HOP-92
Outline: as §1

HT29 = settings: for GI50: HT29, Colon cancer, five-dose
Outline: as §1

MCF7 = settings: for GI50: MCF7, Breast cancer, five-dose
Outline: as §1

EKVX = settings: for GI50: EKVX, Non-small cell lung cancer, five-dose
Outline: as §1

OVCAR-3 = settings: for GI50: OVCAR-3, Ovarian cancer, five-dose
Outline: as §1

UACC-62 = settings: for GI50: UACC-62, Melanoma, five-dose
Outline: as §1

HOP-62 = settings: for GI50: HOP-62, Non-small cell lung cancer, five-dose
Outline: as §1

OVCAR-5 = settings: for GI50: OVCAR-5, Ovarian cancer, five-dose
Outline: as §1

SF-268 = settings: for GI50: SF-268, CNS cancer, five-dose
Outline: as §1

SN12C = settings: SN12C, Renal cancer, five-dose
Outline: as §1

NCI-H522 = settings: for GI50: NCI-H522, Non-small cell lung cancer, five-dose
Outline: as §1

HCC-2998 = settings: for GI50: HCC-2998, Colon cancer, five-dose
Outline: as §1

SW-620 = settings: for GI50: SW-620, Colon cancer, five-dose
Outline: as §1

NCI-H23 = settings: for GI50: NCI-H23, Non-small cell lung cancer, five-dose
Outline: as §1

SNB-19 = settings: for GI50: SNB-19, CNS cancer, five-dose
Outline: as §1

U251 = settings: for GI50: U251, CNS cancer, five-dose
Outline: as §1

PC-3 = system: PC-3
Outline: as §1

Question: With “N'-(2-Hydroxybenzylidene)-2-phenyl-1H-benzo[d]imidazole-5-carbohydrazide [8a]” as the compound, how does the GI% (SF-539; SF-539 (CNS cancer), 10 µM) read?
Answer: L (GI% > 100)

Question: And the GI50 (SF-539)?
Answer: 2740 nM

Question: What about the GI% (MOLT-4; MOLT-4 (Leukemia), 10 µM) of the same compound?
Answer: 89.54%

Question: What about the GI50 (MOLT-4) of the same compound?
Answer: 1620 nM

Question: What about the GI% (NCI-H226; NCI-H226 (Non-small cell lung cancer), 10 µM) of the same compound?
Answer: 93.32%

Question: And the GI50 (NCI-H226)?
Answer: 4020 nM

Question: And the GI% (M14; M14 (Melanoma), 10 µM)?
Answer: 81.80%

Question: What about the GI50 (M14) of the same compound?
Answer: 920 nM

Question: And the GI% (RPMI-8226; RPMI-8226 (Leukemia), 10 µM)?
Answer: 88.59%

Question: And the GI50 (RPMI-8226)?
Answer: 1190 nM

Question: What about the GI% (SR; SR (Leukemia), 10 µM) of the same compound?
Answer: 92.31%

Question: And the GI50 (SR)?
Answer: 1680 nM

Question: And the GI% (TK-10; TK-10 (Renal cancer), 10 µM)?
Answer: 65.04%

Question: What about the GI50 (TK-10) of the same compound?
Answer: 4530 nM

Question: And the GI% (HOP-92; HOP-92 (Non-small cell lung cancer), 10 µM)?
Answer: L (GI% > 100)

Question: And the GI% (HT29; HT29 (Colon cancer), 10 µM)?
Answer: L (GI% > 100)

Question: What about the GI50 (HT29) of the same compound?
Answer: 2630 nM

Question: What about the GI% (MCF7; MCF7 (Breast cancer), 10 µM) of the same compound?
Answer: 96.94%

Question: And the GI50 (MCF7)?
Answer: 2630 nM

Question: And the GI% (EKVX; EKVX (Non-small cell lung cancer), 10 µM)?
Answer: 96.49%

Question: And the GI50 (EKVX)?
Answer: 1850 nM

Question: What about the GI% (OVCAR-3; OVCAR-3 (Ovarian cancer), 10 µM) of the same compound?
Answer: L (GI% > 100)

Question: What about the GI50 (OVCAR-3) of the same compound?
Answer: 1940 nM

Question: And the GI% (UACC-62; UACC-62 (Melanoma), 10 µM)?
Answer: 75.88%

Question: And the GI50 (UACC-62)?
Answer: 3660 nM

Question: And the GI% (HOP-62; HOP-62 (Non-small cell lung cancer), 10 µM)?
Answer: L (GI% > 100)

Question: And the GI50 (HOP-62)?
Answer: 1470 nM

Question: What about the GI% (OVCAR-5; OVCAR-5 (Ovarian cancer), 10 µM) of the same compound?
Answer: 77.04%

Question: And the GI50 (OVCAR-5)?
Answer: 8500 nM

Question: And the GI% (SF-268; SF-268 (CNS cancer), 10 µM)?
Answer: L (GI% > 100)

Question: What about the GI50 (SF-268) of the same compound?
Answer: 2780 nM

Question: What about the GI50 (SN12C) of the same compound?
Answer: 4670 nM

Question: What about the GI% (NCI-H522; NCI-H522 (Non-small cell lung cancer), 10 µM) of the same compound?
Answer: L (GI% > 100)

Question: And the GI50 (NCI-H522)?
Answer: 1870 nM

Question: And the GI% (HCC-2998; HCC-2998 (Colon cancer), 10 µM)?
Answer: 73.20%

Question: And the GI50 (HCC-2998)?
Answer: 3910 nM

Question: And the GI% (SW-620; SW-620 (Colon cancer), 10 µM)?
Answer: 77.39%

Question: And the GI50 (SW-620)?
Answer: 3480 nM

Question: And the GI% (NCI-H23; NCI-H23 (Non-small cell lung cancer), 10 µM)?
Answer: 83.12%

Question: What about the GI50 (NCI-H23) of the same compound?
Answer: 3310 nM

Question: What about the GI% (SNB-19; SNB-19 (CNS cancer), 10 µM) of the same compound?
Answer: 95.02%

Question: What about the GI50 (SNB-19) of the same compound?
Answer: 4160 nM

Question: And the GI% (U251; U251 (CNS cancer), 10 µM)?
Answer: L (GI% > 100)

Question: What about the GI50 (U251) of the same compound?
Answer: 2110 nM

Question: And the GI% (PC-3; PC-3 (Prostate cancer), 10 µM)?
Answer: 90.74%

Question: For `COc1cccc(C=NNC(=O)c2ccc3[nH]c(-c4ccc(Cl)cc4)nc3c2)c1O` [8r, 2-(4-Chlorophenyl)-N'-(2-hydroxy-3-methoxybenzylidene)-1H-benzo[d]imidazole-5-carbohydrazide], which inhibition at 10 µM (SF-539; Homo sapiens, SF-539 (CNS cancer), 10 µM, read-out: GI%) is on record?
Answer: > 100%

Question: What about the GI50 (SF-539; Homo sapiens) of the same compound?
Answer: 1070 nM

Question: And the inhibition at 10 µM (MOLT-4; Homo sapiens, MOLT-4 (Leukemia), 10 µM, read-out: GI%)?
Answer: > 100%

Question: And the GI50 (MOLT-4; Homo sapiens)?
Answer: 630 nM

Question: And the inhibition at 10 µM (NCI-H226; Homo sapiens, NCI-H226 (Non-small cell lung cancer), 10 µM, read-out: GI%)?
Answer: > 100%

Question: What about the GI50 (NCI-H226; Homo sapiens) of the same compound?
Answer: 1650 nM

Question: And the inhibition at 10 µM (M14; Homo sapiens, M14 (Melanoma), 10 µM, read-out: GI%)?
Answer: > 100%

Question: And the GI50 (M14; Homo sapiens)?
Answer: 2070 nM

Question: What about the inhibition at 10 µM (RPMI-8226; Homo sapiens, RPMI-8226 (Leukemia), 10 µM, read-out: GI%) of the same compound?
Answer: > 100%

Question: And the GI50 (RPMI-8226; Homo sapiens)?
Answer: 2220 nM

Question: And the inhibition at 10 µM (SR; Homo sapiens, SR (Leukemia), 10 µM, read-out: GI%)?
Answer: > 100%

Question: And the GI50 (SR; Homo sapiens)?
Answer: 500 nM

Question: And the inhibition at 10 µM (TK-10; Homo sapiens, TK-10 (Renal cancer), 10 µM, read-out: GI%)?
Answer: > 100%

Question: And the GI50 (TK-10; Homo sapiens)?
Answer: 6460 nM

Question: What about the inhibition at 10 µM (HOP-92; Homo sapiens, HOP-92 (Non-small cell lung cancer), 10 µM, read-out: GI%) of the same compound?
Answer: > 100%

Question: What about the GI50 (HOP-92; Homo sapiens, HOP-92, Non-small cell lung cancer, five-dose) of the same compound?
Answer: 1250 nM

Question: What about the inhibition at 10 µM (HT29; Homo sapiens, HT-29, HT29 (Colon cancer), 10 µM, read-out: GI%) of the same compound?
Answer: > 100%

Question: And the GI50 (HT29; Homo sapiens, HT-29)?
Answer: 4170 nM

Question: What about the inhibition at 10 µM (MCF7; Homo sapiens, MCF7 (Breast cancer), 10 µM, read-out: GI%) of the same compound?
Answer: > 100%

Question: And the GI50 (MCF7; Homo sapiens)?
Answer: 660 nM

Question: And the inhibition at 10 µM (EKVX; Homo sapiens, EKVX (Non-small cell lung cancer), 10 µM, read-out: GI%)?
Answer: > 100%

Question: And the GI50 (EKVX; Homo sapiens)?
Answer: 4560 nM

Question: And the inhibition at 10 µM (OVCAR-3; Homo sapiens, OVCAR-3 (Ovarian cancer), 10 µM, read-out: GI%)?
Answer: > 100%

Question: And the GI50 (OVCAR-3; Homo sapiens)?
Answer: 560 nM

Question: And the inhibition at 10 µM (UACC-62; Homo sapiens, UACC-62 (Melanoma), 10 µM, read-out: GI%)?
Answer: > 100%

Question: What about the GI50 (UACC-62; Homo sapiens) of the same compound?
Answer: 1230 nM

Question: And the inhibition at 10 µM (HOP-62; Homo sapiens, HOP-62 (Non-small cell lung cancer), 10 µM, read-out: GI%)?
Answer: > 100%

Question: And the GI50 (HOP-62; Homo sapiens)?
Answer: 1040 nM

Question: And the inhibition at 10 µM (OVCAR-5; Homo sapiens, OVCAR-5 (Ovarian cancer), 10 µM, read-out: GI%)?
Answer: > 100%

Question: And the GI50 (OVCAR-5; Homo sapiens)?
Answer: 2170 nM

Question: What about the inhibition at 10 µM (SF-268; Homo sapiens, SF-268 (CNS cancer), 10 µM, read-out: GI%) of the same compound?
Answer: > 100%

Question: What about the GI50 (SF-268; Homo sapiens) of the same compound?
Answer: 1210 nM

Question: And the GI50 (SN12C; Homo sapiens)?
Answer: 1720 nM

Question: What about the inhibition at 10 µM (NCI-H522; Homo sapiens, NCI-H522 (Non-small cell lung cancer), 10 µM, read-out: GI%) of the same compound?
Answer: > 100%

Question: And the GI50 (NCI-H522; Homo sapiens)?
Answer: 1170 nM

Question: What about the inhibition at 10 µM (HCC-2998; Homo sapiens, HCC-2998 (Colon cancer), 10 µM, read-out: GI%) of the same compound?
Answer: > 100%

Question: And the GI50 (HCC-2998; Homo sapiens)?
Answer: 1480 nM

Question: What about the inhibition at 10 µM (SW-620; Homo sapiens, SW-620 (Colon cancer), 10 µM, read-out: GI%) of the same compound?
Answer: > 100%

Question: And the GI50 (SW-620; Homo sapiens)?
Answer: 1320 nM

Question: And the inhibition at 10 µM (NCI-H23; Homo sapiens, NCI-H23 (Non-small cell lung cancer), 10 µM, read-out: GI%)?
Answer: > 100%

Question: And the GI50 (NCI-H23; Homo sapiens)?
Answer: 1150 nM

Question: What about the inhibition at 10 µM (SNB-19; Homo sapiens, SNB-19 (CNS cancer), 10 µM, read-out: GI%) of the same compound?
Answer: > 100%

Question: What about the GI50 (SNB-19; Homo sapiens) of the same compound?
Answer: 1310 nM

Question: And the inhibition at 10 µM (U251; Homo sapiens, U-251, U251 (CNS cancer), 10 µM, read-out: GI%)?
Answer: > 100%

Question: What about the GI50 (U251; Homo sapiens, U-251) of the same compound?
Answer: 1500 nM

Question: What about the inhibition at 10 µM (PC-3; Homo sapiens, PC-3 (Prostate cancer), 10 µM, read-out: GI%) of the same compound?
Answer: > 100%

Question: And the GI50 (PC-3; Homo sapiens, PC-3, Prostate cancer, five-dose)?
Answer: 1620 nM
